Experimental data: patent US20240140953A1, “INHIBITORS OF MENIN-MLL INTERACTION” (BIOMEA FUSION, INC., priority 2018, published 2024)
Where two headings read alike, the source gives them in different places.

Columns and labels:
[1] = tested on: MOLM-13; test: Long term proliferation assay (Table 3A), MOLM-13; type: cell-based; details: Homo sapiens
[2] = tested on: MOLM-13 (MLL-AF9); test: Proliferation study, CellTiterGlo, 4 days (Example 102), MOLM-13; type: cell-based, human; details: MOLM-13, 4 days treatment; for IC50: Homo sapiens, 96 h, CellTiterGlo; for MOLM-13 (MLL-AF9) % max: maximal inhibition
From the text: The objective of the study was to evaluate the ability of representative compounds of the present invention, inhibitors of Menin/MLL interaction to inhibit cell proliferation. The proliferation inhibitory effect was investigated in two human MLL-leukemia cells selected on the bases of MLL fusion protein and listed in Table 102. HL-60 cell line was used as negative control.
ATP is present in all metabolically active cells and is considered as a marker for cell viability and proliferation. The metabolic cell activity was determined using the CellTiter-Glo kit from Promega, an ATP monitoring system based on the production of luminescence by the reaction of ATP with added UltraGlo® recombinant luciferase (Kawano et al., 2016), according to the supplier's experimental recommendations.
The described assay evaluates the ability of 4 representative compounds to inhibit the cell proliferation in the human MLL-leukemia cells plus a negative control cell line.
The assay provides potency values (IC50) for each test compound at a single time point Day 4 (T4).
Seven concentrations of the compounds (2.00E-05-6.67E-06-2.22E-06-7.41E-07-2.47E-07-8.23E-08-2.74E-08M), were assessed in duplicate in an individual test occasion in all the cell lines. MI-503 (Borkin et al., 2015) was used as reference compound and was tested at the same concentrations as the NCEs. 100% of proliferation is represented by the untreated cells (0.2% DMSO). The cell growth was monitored up to 4 days in culture.
MV4-11, MOLM-13 and HL-60 cells (see Table 2) were maintained in RPMI-1640 medium (Invitrogen, Cat. n. 618700, Batch n. 1965930) supplemented with 10% of Heat Inactivated FBS (Invitrogen, Cat n. 10500, Batch n. 08Q8078K) and 1% Pen-Strep (Invitrogen, Cat. N. 15140, Batch n. 1910859) and cultured at 37° C. in a humidified incubator with 5% CO2. All the cell lines grow in suspension and the cell density was maintained in a range of 2×10^5-1×10^6 viable cells/ml. Cells were pelleted at 130 g×5 min and conditioned medium was used to dilute the cell suspension.
Test items were dissolved in glass vials at 10 mM in DMSO with purity ≥99.9% (Sigma, D8418, batch n. SHBH4245V) and stored at −20° C. in 1.5 mL Eppendorf tubes.
Serial dilutions 1 to 3 in DMSO 100% were prepared starting from a 10 mM stock solutions to generate 7 points concentration response curve (CRC).
For each plate to test, one 0.4 μL copy plate and four 0.3 μL copy plates were then stamped into 96-well plates not treated for cell adhesion (Sarstedt—cat.no. 82.1581.001) by acoustic liquid Handling, Echo, at a concentration which was 500 fold the final assay concentration. Stamped plates were stored at −20° C. The final concentrations for the reference compound, MI-503, and the test items were: 2.00E-05, 6.67E-06, 2.22E-06, 7.41E-07, 2.47E-07, 8.23E-08 and 2.74E-08 M.
Cells were plated in 96-well flat bottom microtiter plates at cell density of 15,000 cells/ml for HL-60, 1000 cells/ml for MOLM-13 and 10,000 cell/ml for MV4-11. Cells were treated with 0.2% DMSO (Sigma, D8418, batch n. SHBH4245V) or serial dilutions of compounds (0.027 μM-20 μM) in DMSO (0.2% final concentration). Cells were incubated in a 5% CO2 incubator at 37° C. for 4 days. A CellTiterGlo viability assay (Promega) was employed. Luminescence was read by using VictorV (Perkin Elmer) multilabel plate reader using the standard protocol for luminescence in 96 well plate. The experiment was performed in duplicate.
Data were expressed as % of inhibition compared to the 0.2% DMSO negative control, and was calculated as follows: […]
CRCs were analysed by GraphPad and IC50 values were calculated by non-linear regression using 4 parameter-logistic equation. IC50 (μM) values were reported in the final data table. The curve fittings were performed leaving free all the parameters. Any constrain were reported in the results table.

[3] = 96 h, MOLM-13, Day 4, read-out: MOLM-13 Day 4 IC50
[4] = read-out: MOLM-13 (MLL-AF9) IC50
[5] = read-out: MOLM-13 (MLL-AF9) pIC50 (converted)

SMILES	IC50 [1, 3]	IC50 [2, 4]	IC50 [2, 5]	MOLM-13 (MLL-AF9) % max [2]	inhibition of cell viability (in words) ([2]; up to 20 μM)	IC50 ([1]; 264 h, MOLM-13, Day 11, read-out: MOLM-13 Day 11 IC50)
Cn1nc(-c2cccnc2)cc1CC(=O)Nc1ccc(-c2cc3c(N4CCOCC4)ncnc3[nH]2)cc1 [Compound 11, 2-[1-methyl-3-(pyridin-3-yl)-1H-pyrazol-5-yl]-N-{4-[4-(morpholin-4-yl)-7H-pyrrolo[2,3-d]pyrimidin-6-yl]phenyl}acetamide]	260 nM	260 nM	257 nM	95%		
O=C(Cc1cc(-c2cccnc2)n[nH]1)Nc1ccc(-c2nc3c(N4CCOCC4)ncnc3[nH]2)cc1 [Compound 12, N-{4-[6-(morpholin-4-yl)-9H-purin-8-yl]phenyl}-2-[3-(pyridin-3-yl)-1H-pyrazol-5-yl]acetamide]	710 nM	~710 nM	~708 nM		slightly active	
O=C(Nc1ccc(-c2cc3c(N4CCOCC4)ncnc3[nH]2)cc1)Nc1cc(-c2cccnc2)n[nH]1 [Compound 9, 1-{4-[4-(morpholin-4-yl)-7H-pyrrolo[2,3-d]pyrimidin-6-yl]phenyl}-3-[3-(pyridin-3-yl)-1H-pyrazol-5-yl]urea]	324 nM	320 nM	324 nM	94%		155 nM
